The target of one test is T1, RNF4 (Homo sapiens, UniProt P78317).
T1 construct: endogenous in cells; host or cells: A375 / A375R human melanoma cells
T1 sequence (P78317 1-190): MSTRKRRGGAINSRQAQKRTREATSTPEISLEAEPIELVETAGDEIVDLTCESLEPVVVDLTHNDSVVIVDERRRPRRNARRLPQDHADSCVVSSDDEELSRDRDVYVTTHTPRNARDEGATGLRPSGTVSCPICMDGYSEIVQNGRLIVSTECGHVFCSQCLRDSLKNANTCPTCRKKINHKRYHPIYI
The test can be described thus: RNF4 protein level by western blot after R4VP treatment. On the set-up: RNF4 degradation in the presence of proteasome inhibitor MG132: dose or concentration left out as unconfirmed. In kind it is cell-based. On the procedure: Protein stability was determined in steady state and dynamic CHX chase experiments as described (Trausch-Azar et al. 2015). Proteins resolved over SDS-PAGE, using the indicated antibodies, and visualized using chemiluminescence (Image-Quan LAS4000). Where indicated cells were treated for the indicated times and concentrations with R4VP or related compounds.
For orientation: A western blot detects proteins with antibodies after separation by electrophoresis.

For test [1], the system named is A375R melanoma cells. Nature of the test: Cell viability (MTT) of Vemurafenib-resistant melanoma cells. In kind it is cell-based, human. Conditions: six days, in presence of PLX4032. On the procedure: (§1) Cell viability was assessed using MTT (Sigma-Aldrich) and ATP-lite (Perkin Elmer) assays according to the manufacture instructions. In assays evaluating resistance to PLX4032, PLX4032-treated cells were cultured for six days before analysis. Viability was measured using cells were performed in 96-well plates and cells incubated for 24 h at 37° C. Next, cells were incubated in MTT solution (Sigma-Aldrich) and processed according to the manufacturer instructions and analyzed using Stat Fax 2100 ELISA reader.

In test [2] the test system is U2OS human osteosarcoma cells. The test can be described thus: Cell viability (MTT) of osteosarcoma cells. In kind it is cell-based. Conditions: concentrations similar to A375R. Here is the method: as §1
Another test has as its system human Myeloma U266 cells. Nature of the test: Cell viability (MTT) of multiple myeloma cells. To be noted: concentrations similar to A375R. In kind it is cell-based. Here is the method:
as §1

A further test deals with human A375R melanoma. The test can be described thus: Colony formation of PLX-resistant melanoma cells. The class given is cell-based. Conditions: added at cell seeding, colonies visualized 8 d after seeding.
The subject of another test is human U2OS sarcoma cells. Nature of the test: Colony formation of osteosarcoma cells. The class given is cell-based. To be noted: added at cell seeding, colonies visualized 9 d after seeding.
Test [3] relates to mouse melanoma B16F10 cancer cells. Nature of the test: Cell viability (MTT) of B16F10 melanoma cells. The class given is cell-based. Conditions: three days treatment. On the procedure: as §1
The subject of test [4] is B16F10 murine melanoma cells. Nature of the test: Colony formation of B16F10 melanoma cells. In kind it is cell-based, mouse. To be noted: nine days.
For test [5], the system named is A375R melanoma cells. The test can be described thus: Cell death by FACS analysis (sub-G1). In kind it is cell-based, human. To be noted: 3 h exposure, 20 uM. For orientation: Flow cytometry measures light scatter and fluorescence of single cells or particles in a stream.
Test [6] concerns human squamous skin cancer cells (SCC1). The test can be described thus: Colony formation of squamous cell carcinoma cells. The class given is cell-based. Here is the method:
Colony formation assay: Cells were suspended in DMEM or RPMI medium and seeded at a density of 1000 cells/well. Plates were maintained at 37° C. for six days, fixed overnight with 4% paraformaldehyde (PFA), stained with 0.05% crystal violet.

Entries after “also recorded” stand apart in the source; their conditions may differ.

The term IC50 denotes the concentration that gives 50% inhibition.

`Cc1ncsc1-c1ccc(CNC(=O)[C@H]2C[C@@H](O)CN2C(=O)[C@H](NC(=O)CCC(=O)NCCCCOc2ccc(Oc3ccc(N(Cc4ccccc4)C(=O)CCl)cc3)cc2)C(C)(C)C)cc1` [R4VP, N1-(4-(4-(4-(N-benzyl-2-chloroacetamido)phenoxy)phenoxy)butyl)-N4-((R)-1-((2R,4R)-4-hydroxy-2-((4-(4-methylthiazol-5-yl)benzyl)carbamoyl)pyrrolidin-1-yl)-3,3-dimethyl-1-oxobutan-2-yl)succinamide]: on RNF4 (A375R cells, MG132 as printed), the “RNF4 degradation in the presence of proteasome inhibitor MG132” value is recorded as “can be inhibited by the proteasome inhibitor MG132; also recorded: restored to levels similar to control treated cells”. Besides, on RNF4 (A375R cells, three hours treatment, western blot), the “RNF4 protein level (exogenous HA-RNF4 or endogenous)” value is reported as “reduced the level of exogenous or endogenous RNF4 protein; also recorded: induced degradation of RNF4”. The “endogenous RNF4 level, dose dependence” value on RNF4 (A375 melanoma cells) was “reduces the level of endogenous RNF4 in A375 melanoma cells in a dose dependent manner”. Also, the “concentration inhibiting growth and proliferation” value with A375R melanoma cells [1] (A375R) was at least 10 µM. Also, the “effect on growth and proliferation of A375R cells” value in the test on A375R melanoma cells [1] is recorded as “inhibits A375R proliferation”. Further, the “effect on proliferation of U2OS cells” value in test [2] is reported as “growth inhibitory effects were also observed; also recorded: inhibits proliferation of U2OS human osteosarcoma cells in a dose dependent manner”. The “effect on proliferation of U266 cells” value in the test with human Myeloma U266 cells was “growth inhibitory effects were also observed; also recorded: inhibits proliferation of human Myeloma U266cells”. In addition, the “effect on colony formation of A375R cells” value in the test with human A375R melanoma is “inhibited colony formation of melanoma and osteosarcoma cells in a dose dependent manner; also recorded: inhibits colony formation of human A375R melanoma”. Also, the “effect on colony formation of U2OS cells” value in the test on human U2OS sarcoma cells is “inhibited colony formation of melanoma and osteosarcoma cells in a dose dependent manner; also recorded: inhibits colony formation of human U2OS sarcoma cells”. The “effect on proliferation/viability of B16F10 cells” value in [3] is “inhibits proliferation and colony formation”; in [3] (listed as RNF4-VHL-PROTAC), “inhibits cell proliferation and colony formation”. Moreover, the “effect on colony formation of B16F10 cells” value in test [4] is “inhibits proliferation and colony formation”; in test [4] (listed as RNF4-VHL-PROTAC), “inhibits cell proliferation and colony formation”. Besides, the “cell death, accumulation of cells in sub-G1” value in the test with A375R melanoma cells [5] was “extensive cell death”; in the test on A375R melanoma cells [5] (listed as RNF4-VHL-PROTAC) it was “results in cell-death”. Further, in test [6] (1, 3 and 5 μM), the “effect on colony formation of SCC1 cells” value is recorded as “inhibiting colony formation”. The IC50 in test [6] (Homo sapiens, squamous cell carcinoma cell line, printed HCC1) is below 1000 nM.

(Values after patent US12630546B2, “RNF4 targeting compounds and uses thereof” (TECHNION RESEARCH & DEVELOPMENT FOUNDATION LIMITED, priority 2021, dated 2026).)
